Assay results as given in patent US10202403B2, “Macrocyclic benzofuran compounds for the treatment of hepatitis C” (BRISTOL-MYERS SQUIBB COMPANY, priority 2014, dated 2019).

Experiments:
[1] = system: genotype 1b (Con-1) HCV replicon; test: HCV replicon luciferase assay; type: cell-based, HCV genotype 1b (Con-1) in human Huh-7 cells; details: Hepatitis C virus, 72 h; genotype 1b replicon, Huh-7, Renilla luciferase, 3 days incubation
Experimental: Cell Lines. The cell lines used to evaluate compounds consist of a human hepatocyte derived cell line (Huh-7) that constitutively expresses a genotype 1b (Con-1) HCV replicon or a genotype 1b (Con-1) HCV replicon with an asparagine replacing the cysteine at amino acid 316, or a genotype 2a (JFH-1) replicon, containing a Renilla luciferase reporter gene. These cells were maintained in Dulbecco's modified Eagle medium (DMEM) containing 10% FBS, 100 U/mL penicillin/streptomycin and 1.0 mg/mL G418.
HCV replicon luciferase assay.To evaluate compound efficacy, titrated compounds were transferred to sterile 384-well tissue culture treated plates, and the plates were seeded with HCV replicon cells (50 μL at a density of 2.4×10^3 cells/well) in DMEM containing 4% FBS (final DMSO concentration at 0.5%). After 3 days incubation at 37° C., cells were analyzed for Renilla Luciferase activity using the EnduRen substrate (Promega cat #E6485) according to the manufacturer's directions. Briefly, the EnduRen substrate was diluted in DMEM and then added to the plates to a final concentration of 7.5 μM. The plates were incubated for at least 1 hour at 37° C., then read on a Viewlux Imager (PerkinElmer) using a luminescence program. The 50% effective concentration (EC50) was calculated using the four-parameter logistic formula noted above.

HCV = details: cited from earlier work

SMILES	EC50 [1]	hepatic toxicity (HCV; extended dosing of the combination regimens, development suspended)	HCV RNA levels in patients (HCV; patients, single agent: transient decrease then rebound, more robust drop with interferon and ribavirin)
CNC(=O)c1c(-c2ccc(F)cc2)oc2ccc3c(c12)CCc1cccc(c1)CCO3 [Compound 1005]	> 10 µM	–	–
CNC(=O)c1c(-c2ccc(F)cc2)oc2ccc3c(c12)CCCCCCCCCCO3 [Compound 1011]	1.08 µM	–	–
CNC(=O)c1c(-c2ccc(F)cc2)oc2cc(N(CCO)S(C)(=O)=O)c(C3CC3)cc12 [HCV-796]	–	hepatic toxicity observed	reduce HCV RNA levels in patients
CNC(=O)c1c(-c2ccc(F)cc2)oc2ccc3c(c12)CCCCCCCCCO3 [Compound 1010]	1.63 µM	–	–
CNC(=O)c1c(-c2ccc(F)cc2)oc2ccc3c(c12)CCOCCOCCO3 [Compound 1006]	> 10 µM	–	–
CNC(=O)c1c(-c2ccc(F)cc2)oc2ccc3c(c12)Cc1ccccc1-c1ccccc1CO3 [Compound 1003]	2.84 µM	–	–
C=CC1Cc2c(ccc3oc(-c4ccc(F)cc4)c(C(=O)NC)c23)O1 (centres unmarked) [Compound 1002]	0.672 µM	–	–
CNC(=O)c1c(-c2ccc(F)cc2)oc2ccc3c(c12)CC1(CC1)COc1ccc2oc(-c4ccc(F)cc4)c(C(=O)NC)c2c1CC1(CC1)CO3 [Compound 2005]	0.931 µM	–	–
CNC(=O)c1c(-c2ccc(F)cc2)oc2ccc3c(c12)CCCCCCCCCCCCO3 [Compound 1013]	1.51 µM	–	–
CNC(=O)c1c(-c2ccc(F)cc2)oc2ccc3c(c12)CCCCCCCO3 [Compound 1008]	1.82 µM	–	–
CNC(=O)c1c(-c2ccc(F)cc2)oc2ccc3c(c12)Cc1cccc(n1)COc1ccc2oc(-c4ccc(F)cc4)c(C(=O)NC)c2c1Cc1cccc(n1)CO3 [Compound 2001]	6.67 µM	–	–
CNC(=O)c1c(-c2ccc(F)cc2)oc2ccc3c(c12)CCCCCCO3 [Compound 1007]	1.29 µM	–	–
CNC(=O)c1c(-c2ccc(F)cc2)oc2ccc3c(c12)CC=CCO3 [Compound 1001]	2.08 µM	–	–
CNC(=O)c1c(-c2ccc(F)cc2)oc2ccc3c(c12)CCCCCCCCO3 [Compound 1009]	2.08 µM	–	–
CNC(=O)c1c(-c2ccc(F)cc2)oc2ccc3c(c12)CCN(S(=O)(=O)c1ccc(C)cc1)CCO3 [Compound 1014]	> 10 µM	–	–
CNC(=O)c1c(-c2ccc(F)cc2)oc2ccc3c(c12)Cc1cccc(c1)COc1ccc2oc(-c4ccc(F)cc4)c(C(=O)NC)c2c1Cc1cccc(c1)CO3 [Compound 2004]	> 10 µM	–	–
CNC(=O)c1c(-c2ccc(F)cc2)oc2ccc3c(c12)CCCCCCCCCCCO3 [Compound 1012]	0.53 µM	–	–
C=C1COc2ccc3oc(-c4ccc(F)cc4)c(C(=O)NC)c3c2CC(=C)COc2ccc3oc(-c4ccc(F)cc4)c(C(=O)NC)c3c2C1 [Compound 2002]	3.65 µM	–	–
CNC(=O)c1c(-c2ccc(F)cc2)oc2ccc3c(c12)Cc1cccc2cccc(c12)CO3 [Compound 1004]	> 10 µM	–	–
